The record followed here is US9783532B2, “Molecules having certain pesticidal utilities, and intermediates, compositions, and processes related thereto” (Dow AgroSciences LLC, priority 2013, dated 2017).

Format in all cases: in vivo
The subject of data set [1] is Beet Armyworm (Spodoptera exigua) ("BAW"). In words: Bioassay on beet armyworm (BAW), 128-well diet tray assay. Particulars: 168 h, 50 μg/cm^2 on artificial diet, second instar BAW larvae, 25° C., five to seven days, average of eight wells, read-out: BAW % Control (or Mortality) rating. The gist of the method: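 Percent mortality, averaged across eight wells, was read after five to seven days at 25° C. under 14:10 light-dark. Each well held one to five second-instar larvae on artificial diet that had been treated with 50 μg/cm^2 compound in 90:10 acetone-water and dried.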

The test system of data set [2] is Cabbage Looper (Trichoplusia ni) ("CL"). In words: Bioassay on cabbage looper (CL), 128-well diet tray assay. Particulars: 168 h, 50 μg/cm^2 on artificial diet, second instar CL larvae, 25° C., five to seven days, average of eight wells, read-out: CL % Control (or Mortality) rating. The gist of the method: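 Percent mortality, averaged across eight replicate wells, was read after five to seven days at 25 °C under a 14:10 photoperiod. Each well held one to five second-instar T. ni on diet carrying a dried 50 μg/cm^2 dose applied in acetone-water 90:10.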

Data set [3] deals with Green Peach Aphid ("GPA") (Myzus persicae). In words: Bioassay on green peach aphid (GPA), foliar spray on cabbage seedlings. Particulars: Myzus persicae, foliar, 72 h; 200 ppm spray on infested cabbage seedlings, three days, Abbott corrected % control; read-out: GPA % Control (or Mortality) rating. As for the experimental part: Certain molecules disclosed in this document were tested against GPA using procedures described in the following example. In the reporting of the results, the “GPA Rating Table” was used (See Table Section).
Cabbage seedlings grown in 3-inch pots, with 2-3 small (3-5 cm) true leaves, were used as test substrate. The seedlings were infested with 20-50 GPA (wingless adult and nymph stages) one day prior to chemical application. Four pots with individual seedlings were used for each treatment. Test compounds (2 mg) were dissolved in 2 mL of acetone/methanol (1:1) solvent, forming stock solutions of 1000 ppm test compound. The stock solutions were diluted 5× with 0.025% Tween 20 in water to obtain the solution at 200 ppm test compound. A hand-held aspirator-type sprayer was used for spraying a solution to both sides of […] leaves until runoff. Reference plants (solvent check) were sprayed with the diluent only containing 20% by volume of acetone/methanol (1:1) solvent. Treated plants were held in a holding room for three days at approximately 25° C. and ambient relative humidity (RH) prior to grading. Evaluation was conducted by counting the number of live aphids per plant under a microscope. Percent Control was measured by using Abbott's correction formula (W. S. Abbott, “A Method of Computing the Effectiveness of an Insecticide” J. Econ. Entomol. 18 (1925), pp. 265-267) as follows. Corrected % Control=100*(X−Y)/X • where • X=No. of live aphids on solvent check plants and • Y=No. of live aphids on treated plants

For data set [4], the system named is Yellow Fever Mosquito "YFM" (Aedes aegypti). Particulars: about 1 day-old larvae, 96-well plate, room temperature, 3 days, mortality. The gist of the method: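 About 1 day-old Aedes aegypti larvae in liver-powder water added to wells holding compound diluted from 4000 ppm DMSO stock with 90:10 water:acetone, 6 replicate plates. Plates kept covered at room temperature for 3 days. Wells scored for mortality and reported as rating categories.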

Turning to `CC(C)c1ccccc1NC(=S)NC(=O)NCCc1ccc(-c2ncn(-c3ccc(OC(F)(F)F)cc3)n2)cc1` [F2, N-[2-isopropylphenyl]-N-[2-(4-{1-[4-(trifluoromethoxy)phenyl]-1H-1,2,4-triazol-3-yl}phenyl)ethyl]dicarbonimidothioic diamide], the mortality at 50 µg/cm2 in data set [1] and in data set [2] was 50 to 100% in each case. In addition, the mortality at 200 ppm in data set [3] was 0 to 80%. The “YFM % Control (or Mortality) rating” value in data set [4] was “A (80-100)”.
Turning to `Cc1ccc(C(C)C)c(N2C(=O)CS/C2=N\C(=O)NCCc2ccc(-c3ncn(-c4ccc(OC(F)(F)F)cc4)n3)cc2)c1` [F5, (Z)-1-(3-(2-isopropropyl-5-methylphenyl)-4-oxothiazolidin-2-ylidene)-3-(4-(1-(4-(trifluoromethoxy)phenyl)-1H-1,2,4-triazol-3-yl)phenethyl)urea], the mortality at 50 µg/cm2 in data set [1] and in data set [2] was 50 to 100% each time. Also, in data set [3], the mortality at 200 ppm was 80 to 100%. Further, the “YFM % Control (or Mortality) rating” value in data set [4] is “A (80-100)”.
Turning to `COc1ccc(C(C)C)c(N2C(=O)CS/C2=N\C(=O)NCCc2ccc(-c3ncn(-c4ccc(OC(F)(F)F)cc4)n3)cc2)c1` [F6, (Z)-1-(3-(2-isopropyl-5-methoxyphenyl)-4-oxothiazolidin-2-ylidene)-3-(4-(1-(4-(trifluoromethoxy)phenyl)-1H-1,2,4-triazol-3-yl)phenethyl)urea], the mortality at 50 µg/cm2 in data set [1] and in data set [2] was 50 to 100% each time. In addition, in data set [3], the mortality at 200 ppm lay within 0 to 80%. Besides, the “YFM % Control (or Mortality) rating” value in data set [4] is reported as “A (80-100)”.
`CC(Cc1ccc(-c2ncn(-c3ccc(OC(F)(F)F)cc3)n2)cc1)NC(=O)/N=C1\SCC(=O)N1c1ccccc1C(C)C` (stereo not drawn) [F7, (Z)-1-(3-(2-isopropylphenyl)-4-oxothiazolidin-2-ylidene)-3-(1-(4-(1-(4-(trifluoromethoxy)phenyl)-1H-1,2,4-triazol-3-yl)phenyl)propan-2-yl)urea]: the mortality at 50 µg/cm2 in data set [1] and in data set [2] was 50 to 100% throughout. In data set [3], the mortality at 200 ppm lay in the range of 0 to 80%. Besides, the “YFM % Control (or Mortality) rating” value in data set [4] is on record as “A (80-100)”.
With `Cc1ccc(C(C)C)c(N2C(=O)CS/C2=N\C(=O)NCCc2ccc(-c3ncn(-c4ccc(OC(F)(F)C(F)(F)F)cc4)n3)cc2)c1` [F9, (Z)-1-(3-(2-isopropyl-5-methylphenyl)-4-oxothiazolidin-2-ylidene)-3-(4-(1-(4-(perfluoroethoxy)phenyl)-1H-1,2,4-triazol-3-yl)phenethyl)urea], the mortality at 50 µg/cm2 in data set [1] and in data set [2] was 50 to 100% throughout. Also, the mortality at 200 ppm in data set [3] came out at 0%. For the same compound, the “YFM % Control (or Mortality) rating” value in data set [4] is listed as “A (80-100)”.
For the compound `Cc1ccc(C(C)C)c(N2C(=O)CS/C2=N\C(=O)NCC(C)c2ccc(-c3ncn(-c4ccc(OC(F)(F)F)cc4)n3)cc2)c1` (stereo not drawn) [F10, (Z)-1-(3-(2-isopropyl-5-methylphenyl)-4-oxothiazolidin-2-ylidene)-3-(2-(4-(1-(4-(trifluoromethoxy)phenyl)-1H-1,2,4-triazol-3-yl)phenyl)propyl)urea], the mortality at 50 µg/cm2 in data set [1] and in data set [2] was 50 to 100% throughout. In data set [3], the mortality at 200 ppm is 0 to 80%. Moreover, the “YFM % Control (or Mortality) rating” value in data set [4] is on record as “A (80-100)”.
With `CC(C)c1ccccc1NC(=S)NC(=O)NCc1ccc(-c2ncn(-c3ccc(OC(F)(F)F)cc3)n2)cc1` [F14, N-[2-(propan-2-yl)phenyl]-N′-(4-{1-[4-(trifluoromethoxy)phenyl]-1H-1,2,4-triazol-3-yl}benzyl)dicarbonimidothioic diamide], the mortality at 50 µg/cm2 in data set [1] and in data set [2] was 50 to 100% each time. In addition, the mortality at 200 ppm in data set [3] came to 0%. For the same compound, the “YFM % Control (or Mortality) rating” value in data set [4] was “A (80-100)”.
For `Cc1ccc(C(C)C)c(NC(=S)NC(=O)NCCCc2ccc(-c3ncn(-c4ccc(OC(F)(F)F)cc4)n3)cc2)c1` [F21, 1-[(2-isopropyl-5-methyl-phenyl)carbamothioyl]-3-[3-[4-[1-[4-(trifluoromethoxy)phenyl]-1H-1,2,4-triazol-3-yl]phenyl]propyl]urea], the mortality at 50 µg/cm2 in data set [1] and in data set [2] was 50 to 100% each time. In addition, the mortality at 200 ppm in data set [3] was found to be 0%. Moreover, the “YFM % Control (or Mortality) rating” value in data set [4] is “A (80-100)”.
As to `Cc1ccc(C(C)C)c(NC(=S)NC(=O)NC2CC2c2ccc(-c3ncn(-c4ccc(OC(F)(F)F)cc4)n3)cc2)c1` (stereo not drawn) [F28, N-[5-methyl-2-(propan-2-yl)phenyl]-N-[2-(4-{1-[4-(trifluoromethoxy)phenyl]-1H-1,2,4-triazol-3-yl}phenyl)cyclopropyl]dicarbonimidothioic diamide], the mortality at 50 µg/cm2 in data set [1] and in data set [2] was 50 to 100% throughout. Also, the mortality at 200 ppm in data set [3] is 0%.
`CC(C)c1ccccc1N1C(=O)CS/C1=N\C(=O)NC1CC1c1ccc(-c2ncn(-c3ccc(OC(F)(F)F)cc3)n2)cc1` (stereo not drawn) [F29, (Z)-1-(3-(2-isopropylphenyl)-4-oxothiazolidin-2-ylidene)-3-(2-(4-(1-(4-(trifluoromethoxy)phenyl)-1H-1,2,4-triazol-3-yl)phenyl)cyclopropyl)urea]: the mortality at 50 µg/cm2 in data set [1] and in data set [2] was 50 to 100% throughout. In addition, the mortality at 200 ppm in data set [3] was determined as 0%. Also, the “YFM % Control (or Mortality) rating” value in data set [4] is “A (80-100)”.
As to `CCCc1ccccc1N1C(=O)CS/C1=N\C(=O)NC1CC1c1ccc(-c2ncn(-c3ccc(OC(F)(F)F)cc3)n2)cc1` (stereo not drawn) [F30, (Z)-1-(4-oxo-3-(2-propylphenyl)thiazolidin-2-ylidene)-3-(2-(4-(1-(4-(trifluoromethoxy)phenyl)-1H-1,2,4-triazol-3-yl)phenyl)cyclopropyl)urea], the mortality at 50 µg/cm2 in data set [1] and in data set [2] was 50 to 100% throughout. Moreover, the mortality at 200 ppm in data set [3] came to 0%.
As for `CCc1cccc(C)c1N1C(=O)CS/C1=N\C(=O)NC1CC1c1ccc(-c2ncn(-c3ccc(OC(F)(F)F)cc3)n2)cc1` (stereo not drawn) [F31, (Z)-1-(3-(2-ethyl-6-methylphenyl)-4-oxothiazolidin-2-ylidene)-3-(2-(4-(1-(4-(trifluoromethoxy)phenyl)-1H-1,2,4-triazol-3-yl)phenyl)cyclopropyl)urea], the mortality at 50 µg/cm2 in data set [1] and in data set [2] was 50 to 100% throughout. The mortality at 200 ppm in data set [3] came out at 0%.
With `Cc1cccc(C)c1N1C(=O)CS/C1=N\C(=O)NC1CC1c1ccc(-c2ncn(-c3ccc(OC(F)(F)F)cc3)n2)cc1` (stereo not drawn) [F32, (Z)-1-(3-(2,6-dimethylphenyl)-4-oxothiazolidin-2-ylidene)-3-(2-(4-(1-(4-(trifluoromethoxy)phenyl)-1H-1,2,4-triazol-3-yl)phenyl)cyclopropyl)urea], the mortality at 50 µg/cm2 in data set [1] and in data set [2] was 50 to 100% each time. The mortality at 200 ppm in data set [3] was determined as 0%.
`CCc1ccc(C)cc1N1C(=O)CS/C1=N\C(=O)NC1CC1c1ccc(-c2ncn(-c3ccc(OC(F)(F)F)cc3)n2)cc1` (stereo not drawn) [F33, (Z)-1-(3-(2-ethyl-5-methylphenyl)-4-oxothiazolidin-2-ylidene)-3-(2-(4-(1-(4-(trifluoromethoxy)phenyl)-1H-1,2,4-triazol-3-yl)phenyl)cyclopropyl)urea]: the mortality at 50 µg/cm2 in data set [1] and in data set [2] was 50 to 100% throughout. In data set [3], the mortality at 200 ppm is 0%.
Consider `Cc1ccc(C(C)C)c(N2CCS/C2=N\C(=O)NC2CC2c2ccc(-c3ncn(-c4ccc(OC(F)(F)F)cc4)n3)cc2)c1` (stereo not drawn) [F34, (Z)-1-(3-(2-isopropyl-5-methylphenyl)thiazolidin-2-ylidene)-3-(2-(4-(1-(4-(trifluoromethoxy)-phenyl)-1H-1,2,4-triazol-3-yl)phenyl)cyclopropyl)urea], for which the mortality at 50 µg/cm2 in data set [1] and in data set [2] was 50 to 100% in each case. In addition, the mortality at 200 ppm in data set [3] is 0%.

For orientation: mortality means the percentage killed.
